Assay results: patent publication US20070155660A1, “Inhibition of voluntary ethanol consumption with selective melanocortin 4-receptor agonists” (priority 2003, published 2007)
Bridge positions count the residues as written; N and C are the ends. Square brackets hold non-standard residues; d marks the D form. Peptide text beside a SMILES is read from it. βAla = NCCC(=O)O

Legend:
hMC-3R [1] = molecular target: T1, hMC-3R (Homo sapiens, UniProt P41968); experiment: cAMP assay in CHO cells expressing a human melanocortin receptor; type: cell-based
T1 construct: expressed in transfected cells; host or cells: Chinese hamster ovary (CHO) cells
T1 sequence (P41968 whole entry): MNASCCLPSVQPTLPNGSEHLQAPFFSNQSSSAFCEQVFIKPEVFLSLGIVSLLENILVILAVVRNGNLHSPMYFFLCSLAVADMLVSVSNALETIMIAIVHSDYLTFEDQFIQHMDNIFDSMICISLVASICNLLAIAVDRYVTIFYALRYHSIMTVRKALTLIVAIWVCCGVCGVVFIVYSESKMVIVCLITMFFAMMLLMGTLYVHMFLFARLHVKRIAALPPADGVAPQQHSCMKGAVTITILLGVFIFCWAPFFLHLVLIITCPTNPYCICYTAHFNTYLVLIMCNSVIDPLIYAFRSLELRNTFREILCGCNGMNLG
Protocol: (§1) Chinese hamster ovary cells expressing a human melanocortin receptor were rinsed with calcium-and magnesium-free PBS (Life Technologies), and detached from the tissue culture flasks by 5-minutes incubation with enzyme-free dissociation buffer (S-014-B, Specialty Media). Cells were collected by centrifugation and resuspended in Earle's balanced salt solution (Life Technologies) with addition of 10 mM 4-(2-hydroxyethyl)-1-piperazineethanesulfonic acid (Hepes) buffer, pH 7.5, 5 mM MgCl2, 1 mM glutamine, and 1 mg/ml bovine serum albumin to concentration of 1-5×10^6 cells/ml. Subsequently, cells were counted and the cell suspension was treated with the phosphodiesterase inhibitor 3-isobutyl-1-methylxanthine (to concentration of 0.6 mM).
(§2) A test compound was dissolved in dimethyl sulfoxide (DMSO, 10^−3 to 10^−8 M), diluted with buffer and 0.1 volume of the solution was added to 0.9 volumes of the cell suspension (1 to 5×10^5 cells); final concentration of DMSO was 1%. After 45 minutes at room temperature, cells were lysed by incubation at 100° C. for 5 minutes to release accumulated cAMP. Accumulation of cAMP was measured in an aliquot of the cell lysate with the Amersham (Arlington Heights, Ill.) cAMP detection assay kit (RPA556). The amount of cAMP produced in response to a tested compound was compared to the amount of cAMP produced in response to α-MSH, defined as a 100% agonist. […]

hMC-1R = molecular target: T2, hMC-1R (Homo sapiens, UniProt Q01726); experiment: as above; type: cell-based
T2 construct: expressed in transfected cells; host or cells: Chinese hamster ovary (CHO) cells
T2 sequence (Q01726 whole entry): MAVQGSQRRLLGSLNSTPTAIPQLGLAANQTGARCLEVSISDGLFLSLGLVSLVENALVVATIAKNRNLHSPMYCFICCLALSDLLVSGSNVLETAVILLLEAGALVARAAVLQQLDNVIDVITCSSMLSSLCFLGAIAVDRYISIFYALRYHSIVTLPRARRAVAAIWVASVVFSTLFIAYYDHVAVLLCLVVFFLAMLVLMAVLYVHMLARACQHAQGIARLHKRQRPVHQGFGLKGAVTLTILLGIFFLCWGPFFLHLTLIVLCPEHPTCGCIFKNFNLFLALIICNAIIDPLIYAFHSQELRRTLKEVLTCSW
Protocol: as §1, §2

MC4R [2] = molecular target: T3, MC4R (Homo sapiens, UniProt P32245); experiment: as above; type: cell-based; parameters: expressed in transfected cells; host or cells: Chinese hamster ovary (CHO) cells
T3 sequence (P32245 whole entry): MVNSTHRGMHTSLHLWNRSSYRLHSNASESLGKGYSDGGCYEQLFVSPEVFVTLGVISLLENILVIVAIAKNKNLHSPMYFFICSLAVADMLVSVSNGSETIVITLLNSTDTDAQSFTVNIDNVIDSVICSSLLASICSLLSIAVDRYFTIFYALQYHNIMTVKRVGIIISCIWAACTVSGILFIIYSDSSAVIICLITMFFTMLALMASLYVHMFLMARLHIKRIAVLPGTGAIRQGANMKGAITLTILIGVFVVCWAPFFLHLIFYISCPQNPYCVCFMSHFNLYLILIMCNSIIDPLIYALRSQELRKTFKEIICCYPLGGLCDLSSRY
Protocol: as §1
(§3) A test compound was dissolved in dimethyl sulfoxide (DMSO, 10^−3 to 10^−8 M), diluted with buffer and 0.1 volume of the solution was added to 0.9 volumes of the cell suspension (1 to 5×10^5 cells); final concentration of DMSO was 1%. After 45 minutes at room temperature, cells were lysed by incubation at 100° C. for 5 minutes to release accumulated cAMP. Accumulation of cAMP was measured in an aliquot of the cell lysate with the Amersham (Arlington Heights, Ill.) cAMP detection assay kit (RPA556). The amount of cAMP produced in response to a tested compound was compared to the amount of cAMP produced in response to α-MSH, defined as a 100% agonist. All active peptides were characterized in three independent experiments.

MC5R [3] = molecular target: T4, MC5R (Homo sapiens, UniProt P33032); experiment: as above; type: cell-based; parameters: expressed in transfected cells; host or cells: Chinese hamster ovary (CHO) cells
T4 sequence (P33032 whole entry): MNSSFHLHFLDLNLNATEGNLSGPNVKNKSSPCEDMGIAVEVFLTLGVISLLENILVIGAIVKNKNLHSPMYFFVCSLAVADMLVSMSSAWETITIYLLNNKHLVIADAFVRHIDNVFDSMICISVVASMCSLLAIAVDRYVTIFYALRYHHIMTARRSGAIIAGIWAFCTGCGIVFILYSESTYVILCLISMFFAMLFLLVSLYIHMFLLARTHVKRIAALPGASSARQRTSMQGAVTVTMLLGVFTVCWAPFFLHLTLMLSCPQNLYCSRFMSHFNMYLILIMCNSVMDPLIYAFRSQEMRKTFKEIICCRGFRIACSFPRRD
Protocol: as §1, §3

MC4R [4] = molecular target: T3, MC4R; experiment: Competitive binding assay, [125I]-NDP-α-MSH, CHO cell membranes; parameters: expressed in transfected cells; host or cells: Chinese hamster ovary (CHO) cells
Protocol: (§4) The peptides of the present invention were evaluated for […] in receptor binding assay. Crude membrane preparations were obtained from Chinese hamster ovary cells expressing human MC3, MC4, and MC5 receptors. Cells were rinsed with phosphate-buffered saline (PBS) lacking CaCl2 or MgCl2 (Life Technologies, Gaithersburg, Md., USA), and then detached with enzyme-free dissociation media (Specialty Media, Lavellette, N.J., USA). Cells were pelleted at 2800×g for 10 minutes and resuspended in membrane buffer (20 mM Tris, pH 7.2, 5 mM ethylenediaminetetraacetic acid) with 5 μg/ml leupeptin, 5 μg/ml aprotinin, 40 μg/ml bacitracin, and 25 μg/m pefabloc (Boehringer Mannheim). The cells were […] with 10 strokes by using a motor-driven Teflon-coated pestle in a glass homogenizer at low speed. The resulting cell suspension was centrifuged at 4100×g, 4° C., for 20 minutes. The pellet was resuspended in fresh membrane buffer with protease inhibitors, aliquoted, snap-frozen in liquid nitrogen, and stored at −80° C. The resulting crude membranes were titrated to determine the optimal level necessary for performing binding studies. Results
(§5) Binding reactions (total volume=[…]) contained MBB (50 mM Tris, pH 7.2, 2 mM CaCl2, 1 mM MgCl2), 0.1% bovine serum albumin, crude membranes prepared from cells expressing human MC3, MC4, or MC5 receptor, 200 pM of [125I]-NDP-α-MSH (Amersham, Arlington Heighs, Ill., USA), and increasing concentrations of unlabeled test compounds dissolved in dimethylsulfoxide (final concentration=2%). Reactions were incubated for 1 hour without shaking and then filtered through 96-well filter plates (Packard), presoaked in 1% polyethyleneimine. Filters were washed 3 times with TNE buffer (50 mM Tris, pH 7.4, 5 mM ethylenediaminetetraacetic acid, 150 mM NaCl), dried and counted by using Microscint-20 in a Topcount scintillation counter (Packard). Nonspecific binding was determined in the presence of 2 μm of unlabeled NDP-α-MSH (Peninsula Laboratories). Active peptides were evaluated in three independent experiments.

MC5R [5] = molecular target: T4, MC5R; experiment: as above; parameters: expressed in transfected cells; host or cells: Chinese hamster ovary (CHO) cells; settings: read-out: Binding Assay IC50 hMC-5R
Protocol: as §4, §5

hMC-3R [6] = molecular target: T1, hMC-3R; experiment: as above; settings: read-out: Binding Assay IC50 hMC-3R
Protocol: The peptides of the present invention were evaluated for […] in receptor binding assay. Crude membrane preparations were obtained from Chinese hamster ovary cells expressing human MC3, MC4, and MC5 receptors. Cells were rinsed with phosphate-buffered saline (PBS) lacking CaCl2 or MgCl2 (Life Technologies, Gaithersburg, Md., USA), and then detached with enzyme-free dissociation media (Specialty Media, Lavellette, N.J., USA). Cells were pelleted at 2800×g for 10 minutes and resuspended in membrane buffer (20 mM Tris, pH 7.2, 5 mM ethylenediaminetetraacetic acid) with 5 μg/ml leupeptin, 5 μg/ml aprotinin, 40 μg/ml bacitracin, and 25 μg/m pefabloc (Boehringer Mannheim). […]
as §5, with “Reactions were incubated for 1 hour without shaking and then filtered through 96-well filter plates (Packard), presoaked in 1% polyethyleneimine.” left out, “Active peptides were evaluated in three independent experiments.” left out

EC50 (hMC-3R [1]): 0.059 µM | EC50 (hMC-1R): 0.011 µM | EC50 (MC4R [2]): 0.00053 µM | Selectivity cAMP EC50 1R/4R (MC4R [2]; ratio of EC50 hMC-1R / hMC-4R): 20.75 | Selectivity cAMP EC50 3R/4R (MC4R [2]; ratio of EC50 hMC-3R / hMC-4R): 111 | Selectivity cAMP EC50 5R/4R (MC4R [2]; ratio of EC50 hMC-5R / hMC-4R): 3585 | EC50 (MC5R [3]): 1.9 µM | Selectivity Binding IC50 3R/4R (MC4R [4]; ratio of IC50 hMC-3R / hMC-4R): 122.5 | Selectivity Binding IC50 5R/4R (MC4R [4]; ratio of IC50 hMC-5R / hMC-4R): 1150 | IC50 (MC4R [4]; read-out: Binding Assay IC50 hMC-4R): 0.004 µM | IC50 (MC5R [5]): 4.6 µM | IC50 (hMC-3R [6]): 0.49 µM
Compound: N=C(N)NCCC[C@@H]1NC(=O)[C@@H](Cc2ccccc2)NC(=O)[C@H](Cc2c[nH]cn2)NC(=O)CCNC(=O)CC[C@@H](C(N)=O)NC(=O)[C@H](Cc2c[nH]c3ccccc23)NC1=O [Example 8] ([βAla]H[dF]RWE-NH2; lactam N-6 (inferred))
